Results taken from US6806293B1, “Use of pheromone compounds having MAP kinase modulating activity” (Darley Pharmaceuticals LTD, priority 2001, dated 2004).

Tests used:
MAP kinase [1] = experiment: Screening method for pheromone compounds having MAP kinase modulating activity in Rat1 cells (Example 1); format: cell-based, rat; conditions: observed on screening in accordance with the described methods
Protocol: In a preferred screening method, as set forth in Example 1 herein, pheromone compounds with MAP kinase modulating activity are identified using Rat1 cells grown in cell culture dishes. Samples of the pheromone compound are added to respective cell culture dishes containing the Rat1 cells and incubated. A control group is established by treating a separate group of cell culture dishes containing Rat1 cells with the same solutions absent the pheromone compound. After incubation, the Rat1 cells are stimulated with epidermal growth factor to stimulate MAP kinase activation in the Rat1 cells. Upon completion of the incubation period, the Rat1 cells in each of the culture dishes are separately processed to obtain the corresponding cell extract containing proteins indicative of active kinase. The proteins are then separated using known electrophoresis techniques and prepared as a blot for the detection and measurement of active MAP kinase. The resulting blot is analyzed using densitometric techniques to measure the corresponding activity of the tested pheromone compound.
Rat1 cells were grown in 6 cm cell culture dishes in a tissue culture incubator at 37° C. in an atmosphere containing 5% carbon dioxide. The cells were serum-starved for 16 hours. […] A control group was established by adding to the remaining cell culture dishes the same solution absent the pheromone compound. After the 15 minute period, the Rat1 cells were stimulated with epidermal growth factor (EGF) (50 ng/ml) for about 15 minutes for one group and 30 minutes for a second group.
The Rat1 cells were then treated to remove the corresponding incubation medium and then the cells were rinsed twice each with 5 ml of cold phosphate buffered saline (PBS) and once with 5 ml of cold homogenizing buffer (Buffer H) containing 50 mM of β-glycerophosphate, (pH 7.3), 1.5 mM of ethylenebis(oxyethylenenitrilo)tetraacetic acid (EGTA), 1 mM of ethylenediaminetetraacetic acid (EDTA), 1 mM of dithiothreitol (DTT), 0.1 mM sodium orthovanadate, 1 mM benzamidine, 10 μg/ml of aprotinin, 10 μg/ml of leupeptin, and 2 μg/ml of pepstatin (2 μg/ml)+1% Triton-X-100.
The cells were harvested and lysed with 350 μl of cold Buffer H. Alternatively, the cells may be harvested and lysed with radioimmunoprotein assay buffer (RIPA buffer). Each extract was then centrifuged at 15,000×g for 15 minutes at 4° C. The resulting supernatants contained the protein extracts to be examined and were transferred to fresh, pre-cooled test tubes and kept on ice.
The proteins were then separated by sodium dodecyl sulfate-polyacrylamide gel electrophoresis (SDS-PAGE) and transferred, by western blotting, onto a nitrocellulose membrane.
The blot produced above was blocked with 2% bovine serum albumin (BSA) in Tris-buffered saline/Tween-20 (TBST) for 1 hour. The blot was then incubated with a monoclonal anti-active MAP kinase antibody obtained from Sigma, and diluted according to the manufacturer recommendations. The blot was incubated overnight at 4° C. Alternatively, the blot may also be incubated for about 30 minutes at 37° C., or from one to two hours at room temperature.
The treated blot was placed in a flat container and washed at least 3 times for 15 minutes each with TBST buffer at room temperature. The blot was then incubated with alkaline phosphatase-conjugated goat anti-mouse IgG obtained from Jackson Laboratories, diluted according to the manufacturer recommendations in TBST buffer for 45 minutes at room temperature. The blot was then subjected to a second washing, repeated 3 times, for 10 minutes each with TBST. An alkaline phosphatase (AP) detection technique was utilized to detect and measure the presence of active MAP kinase. Enhanced MAP kinase activity as compared to control is evidence that the compound is a MAP kinase activator. Lowered MAP kinase activity as compared to control is evidence that the compound is a MAP kinase inhibitor. […]

MAP kinase [2] = experiment: Inhibition of EGF-stimulated MAP kinase activity in Rat1 cells (Example 2, western blot with anti-active-MAPK antibodies, densitometry); format: cell-based, rat; conditions: compound 10^-4 M preincubated about 30 min; for Inhibition of MAP Kinase activity (% of Control), 15 minute activation by EGF: EGF 25 ng/ml for 15 minutes
Protocol: Rat1 cells grown in a series of cell culture dishes were prepared in the same manner described above in Example 1. The cells were serum-starved for 16 hours. Three groups of cell culture dishes containing Rat1 cells were each preincubated for about 30 minutes with solution containing the pheromone compound, trans-3, cis-7-tetradecadienyl-acetate at a concentration of 10^−4 M, with a solution containing the pheromone compound, trans-3, cis-8-tetradecadienyl-acetate at a concentration of 10^−4 M, or a control solution absent any pheromone compound. After preincubation, all of the Rat1 cells were stimulated with epidermal growth factor (EGF) (25 ng/ml) for about 15 minutes for one group and 30 minutes for a second group. The Rat1 cells were then washed with phosphate buffered saline (PBS) and lysed with RIPA buffer. The proteins were then separated by sodium dodecyl sulfate-polyacrylamide gel electrophoresis (SDS-PAGE) and probed with anti-active-MAPK antibodies. The inhibitory effect of the pheromone compound on MAPK activity was calculated as the percent EGF-induced activity as indicated by densitometry analysis as compared to the control receiving no pheromone compound.

SMILES	mitogen-activating protein kinase modulation activity (activator or inhibitor) (MAP kinase [1])	Inhibition of MAP Kinase activity (% of Control), 15 minute activation by EGF (MAP kinase [2]) [%]	Inhibition of MAP Kinase activity (% of Control), 30 minute activation by EGF (MAP kinase [2]; EGF 25 ng/ml for 30 minutes) [%]
CCCCCC/C=C\CC/C=C/CCOC(C)=O [Trans-3,Cis-7-Tetradecadienyl-acetate]	inhibitors	75	85
CCCCC/C=C\CCC/C=C/CCOC(C)=O [Trans-3,Cis-8-Tetradecadienyl-acetate]	inhibitors	50	
